Results: US10940139B2, “Compounds that interact with the Ras superfamily for the treatment of cancers, inflammatory diseases, rasopathies, and fibrotic disease” (Shy Therapeutics LLC, priority 2017, dated 2021)

How the values were obtained:
[1] = system: TNFα production in RAW 264.7 macrophage cell line; assay: Mouse TNF alpha quantification assay (LPS-stimulated macrophages, ELISA); assay type: cell-based; settings: RAW264.7, RAW 264.7 murine leukemia virus transformed macrophage cell lines, LPS stimulation, read-out: TNF-α % Inhibition at 30 μM
[2] = system: IL6 production in RAW 264.7 macrophage cell line; assay: Mouse IL6 quantification assay (LPS-stimulated macrophages, ELISA); assay type: cell-based; settings: RAW264.7, RAW 264.7 murine leukemia virus transformed macrophage cell lines, LPS stimulation, read-out: IL-6 % Inhibition at 30 μM

Row | SMILES | inhibition at 30 µM [1] [%] | inhibition at 30 µM [2] [%]
1 | Cc1sc2c(O)nc(-c3ccccn3)nc2c1-c1ccccc1Cl [drawing 2342] | 51 to 75 | 51 to 75
2 | Cc1sc2[nH]c(-c3ccccn3)nc(=O)c2c1-c1ccccc1 [drawing 2026] | 1 to 25 | 0
3 | O=C(Cc1c[nH]c2ccccc12)Nc1nnc(-c2ccccn2)[nH]1 [drawing 1931] | 1 to 25 | 26 to 50
4 | COc1ncc(CCNC(=O)c2csc3nc(-c4ccccn4)nc(N4CCOCC4)c23)cn1 [drawing 2175] | 0 | 1 to 25
5 | COCCNc1nc(-c2cccc(N)n2)nc2sc(-c3ccccc3)c(-c3ccccc3)c12 [drawing 2418] | 26 to 50 | 26 to 50
6 | Cn1ccnc1-c1nc(NCCOC2CC2)c2c(-c3ccccc3)c(-c3ccccc3)sc2n1 [drawing 2403] | 76 to 100 | 76 to 100
7 | CC(C)COc1ccc(-c2c(-c3ccccc3)sc3c(O)nc(-c4nccn4C)nc23)cn1 [drawing 2414] | 1 to 25 | 51 to 75
8 | COCCCC(=O)N1CCCc2c(O)nc(-c3ccccn3)nc21 [drawing 2080] | 1 to 25 | 76 to 100
9 | CC(=O)N1CCN(c2nc(-c3ccccn3)nc3scc(-c4ccccc4)c23)CC1 [drawing 2162] | 26 to 50 | 26 to 50
10 | CC(Oc1cccc(C#N)c1)C(=O)Nc1nnc(-c2ccccn2)[nH]1 (stereo not drawn) [drawing 1967] | 0 | 1 to 25
11 | COCCNc1nc(-c2ccccn2)nc(-c2cccc(OCCN(C)C)c2)c1Oc1ccccc1 [drawing 2356] | 1 to 25 | 0
12 | Cc1sc2c(O)nc(-c3nccn3C)nc2c1-c1ccc(OC(C)C)c(F)c1 [drawing 2437] | 0 | 51 to 75
13 | CCc1cc(NNC(=O)c2ccc(C#N)cc2)nc(-c2ccccn2)n1 [drawing 2040] | 76 to 100 | 76 to 100
14 | COc1cnc(CNC(=O)c2cc3nc(-c4ccccn4)nc(O)c3s2)[nH]c1=O [drawing 2348] | 1 to 25 | 0
15 | COCCNc1nc(-c2nccn2C)nc2sc(-c3cccc(OC)c3)c(-c3ccccc3)c12 [drawing 2413] | 76 to 100 | 76 to 100
16 | O=C(c1csc2c(O)nc(-c3ccccn3)nc12)N1CCC(c2cccnc2)CC1 [drawing 2109] | 1 to 25 | 76 to 100
17 | CCCNC(=O)CN1CCN(c2nc(-c3ccccn3)nc3sc(-c4ccccc4)cc23)CC1 [drawing 2135] | 76 to 100 | 76 to 100
18 | CN(CCc1ccncc1)C(=O)c1csc2c(O)nc(N)nc12 | 0 | 1 to 25
19 | N#Cc1ccc(COCC(=O)Nc2ccnc(-c3ccccn3)n2)cc1 [drawing 2208] | 1 to 25 | 1 to 25
20 | O=C(Nc1nnc(-c2ccccn2)[nH]1)c1ccc(Oc2ccccc2)nc1 [drawing 1956] | 1 to 25 | 26 to 50
21 | CC(O)CNc1nc(-c2ccccn2)nc2scc(-c3ccccc3)c12 (stereo not drawn) [drawing 2042] | 1 to 25 | 26 to 50
22 | Oc1nc(-c2ccccn2)nc2c(-c3cncc(C(F)F)c3)csc12 [drawing 2329] | 0 | 26 to 50

Row | SMILES | inhibition at 30 µM [1] [%] | inhibition at 30 µM [2] [%]
23 | Cc1c(C(=O)O)sc2c(O)nc(-c3ccccn3)nc12 [drawing 2313] | 76 to 100 | 76 to 100
24 | O=C(c1csc2c(O)nc(-c3ccccn3)nc12)N1CCOC(Cc2ccccc2)C1 (stereo not drawn) [drawing 2195] | 0 | 76 to 100
25 | Oc1nc(-c2ccccn2)nc2c1c(-c1ccccc1)nn2-c1ccccn1 [drawing 2366] | 1 to 25 | 51 to 75
26 | O=C(Nc1nnc(-c2ccccn2)[nH]1)c1ccc2ccccc2n1 [drawing 1942] | 0 | 1 to 25
27 | COC(=O)c1c(C)sc2c(N)nc(-c3ccccn3)nc12 [drawing 2335] | 1 to 25 | 76 to 100
28 | COc1ccc(COCC(=O)Nc2nnc(-c3ccccn3)[nH]2)cc1 [drawing 2004] | 1 to 25 | 26 to 50
29 | Oc1nc(-c2ccccn2)nc2c1ncn2-c1ccccc1 [drawing 2123] | 0 | 1 to 25
30 | FC(F)(F)Sc1ccc(Cc2ccc(SC(F)(F)F)cc2)cc1 [drawing 2051] | 0 | 1 to 25
31 | COC(=O)c1nc(-c2ccccn2)nc(O)c1O [drawing 2374] | 0 | 0
32 | Nc1nc(O)c2scc(Br)c2n1 [drawing 2089] | 1 to 25 | 1 to 25
33 | OCC1(c2ccc(-c3csc4c(O)nc(-c5ccccn5)nc34)cc2)CC1 [drawing 2278] | 1 to 25 | 76 to 100
34 | N#Cc1ccccc1OCC(=O)Nc1nnc(-c2ccccn2)[nH]1 [drawing 1954] | 0 | 1 to 25
35 | O=S1(=O)CCC(Nc2nc(-c3ccccn3)nc3scc(-c4ccccc4)c23)C1 (stereo not drawn) [drawing 2152] | 0 | 1 to 25
36 | CCOC(=O)NC1CCN(C(=O)c2csc3c(O)nc(-c4ccccn4)nc23)CC1 [drawing 2112] | 0 | 51 to 75
37 | COCC(C)Nc1nc(-c2ccccn2)nc2sc(C)c(-c3ccccc3)c12 (stereo not drawn) [drawing 2039] | 76 to 100 | 76 to 100
38 | Cn1ccnc1-c1nc(O)c2scc(-c3cccc(OC(F)(F)F)c3)c2n1 [drawing 2430] | 51 to 75 | 76 to 100
39 | Cc1nc(-c2ccccn2)nc(O)c1CCC(=O)Nc1ccc(C(C)C)cc1 [drawing 2034] | 1 to 25 | 0
40 | Oc1nc(-c2ccccn2)nc2c(-c3ccccc3Cl)csc12 [drawing 2121] | 76 to 100 | 76 to 100
41 | Oc1nc(-c2ccccn2)nc2c(C3CCCC3)csc12 [drawing 2337] | 26 to 50 | 51 to 75
42 | COc1nc(-c2ccccn2)nc2c(C3CCC3)csc12 [drawing 2318] | 1 to 25 | 1 to 25
43 | O=C(c1csc2c(O)nc(-c3ccccn3)nc12)N1CCN(c2cccc(F)c2)CC1 [drawing 2179] | 0 | 76 to 100
44 | CSc1nc(C2CC2)cc(C(=O)NCCc2ccc(S(=O)(=O)NC(=O)c3cc(C4CC4)nc(SC)c3C#N)cc2)c1C#N [drawing 2067] | 26 to 50 | 1 to 25

Row | SMILES | inhibition at 30 µM [1] [%] | inhibition at 30 µM [2] [%]
45 | c1ccc(-c2nc(N3CCOCC3)c3ccsc3n2)nc1 [drawing 2127] | 1 to 25 | 1 to 25
46 | COc1ccc(-c2csc3c(O)nc(-c4ccccn4)nc23)c(C)c1 [drawing 2273] | 76 to 100 | 76 to 100
47 | CCN(CC)CCC(C)Nc1nc(-c2ccccn2)nc2sccc12 (stereo not drawn) [drawing 2130] | 0 | 1 to 25
48 | COc1nc(-c2ccccn2)nc2c1c(-c1ccccc1)nn2-c1ccccn1 [drawing 2367] | 76 to 100 | 76 to 100
49 | COCCNc1nc(-c2cn(C)cn2)nc2sc(C)c(-c3ccccc3)c12 [drawing 2412] | 26 to 50 | 1 to 25
50 | O=C(Nc1nnc(-c2ccccn2)[nH]1)c1nc(N2CCOCC2)ncc1Cl [drawing 1964] | 0 | 1 to 25
51 | Nc1nc(O)c2scc(C(=O)N3CCC(N4CCCC4=O)CC3)c2n1 [drawing 2094] | 0 | 1 to 25
52 | Cc1cccc(C(=O)Nc2nnc(-c3ccccn3)[nH]2)n1 [drawing 1976] | 0 | 1 to 25
53 | O=C(NCCc1cccnc1)c1cc2nc(-c3ccccn3)nc(O)c2s1 [drawing 2236] | 1 to 25 | 26 to 50
54 | CCOCCC1CCN(C(=O)c2csc3c(O)nc(-c4ccccn4)nc23)CC1 [drawing 2103] | 1 to 25 | 76 to 100
55 | COc1ccc(-c2csc3c(O)nc(-c4nccn4C)nc23)cn1 [drawing 2440] | 76 to 100 | 76 to 100
56 | O=C(c1csc2c(O)nc(-c3ccccn3)nc12)N1CCN(Cc2ccc(O)cc2)CC1 [drawing 2189] | 1 to 25 | 1 to 25
57 | O=C(c1csc2c(O)nc(-c3ccccn3)nc12)N1CCNC(c2ccccc2F)C1 (stereo not drawn) [drawing 2200] | 1 to 25 | 76 to 100
58 | Nc1nc(O)c2sc(-c3cccc(C(=O)NCc4cccc(O)n4)c3)cc2n1 [drawing 2373] | 0 | 51 to 75
59 | Cc1cc2c(=O)nc(-c3cc(OCC(F)F)ccn3)[nH]c2s1 [drawing 2031] | 1 to 25 | 1 to 25
60 | Nc1nc(-c2ccccn2)nc2c(-c3ccccc3)csc12 [drawing 2251] | 51 to 75 | 76 to 100
61 | COc1ccc(OCc2nc(CNCCc3nnc4n3CCC4)cs2)cc1 [drawing 2006] | 0 | 1 to 25
62 | CC(C)(C)c1sc2c(O)nc(-c3ccccn3)nc2c1Br [drawing 2381] | 1 to 25 | 0
63 | O=C(NCCc1ccc(O)c(O)c1)c1csc2nc(-c3ccccn3)nc(N3CCOCC3)c12 [drawing 2204] | 0 | 1 to 25
64 | COCCNc1nc(-c2nccn2C)nc2sc(C)c(-c3ccccc3)c12 [drawing 2411] | 26 to 50 | 1 to 25
65 | Cn1ccnc1-c1nc(NCCOC(F)(F)F)c2c(-c3ccccc3)c(-c3ccccc3)sc2n1 [drawing 2395] | 1 to 25 | 26 to 50
66 | O=C(c1csc2c(O)nc(-c3ccccn3)nc12)N1CCN(c2ccc(F)cc2F)CC1 [drawing 2185] | 0 | 76 to 100
